We go through 2 compounds from patent US7074807B2, “Compositions and methods for inducing cell death” (Georgetown University, priority 1998, dated 2006).

What is called viability is a per cent measure of how many cells are alive, often set against a control. A high value points to better survival.

Data set [1] deals with LNCaP cells. In words: Light and transmission electron microscopy of LNCaP cells. Type of data set: cell-based, human. The procedure: LNCaP cells ([…]) were seeded in 25 cm2 tissue culture flasks in RPMI medium containing 10% BCS overnight, followed by change to RPMI medium containing 5% BCS stimulation with 0.1% ethanol (control, 11A1, 11B1) or tempo (2.5 mM, 11A2, 11B2) for indicated times.
12A1, untreated, 4,000×; 12A2, a portion of the cell shown in 12A1, 20,000×; 12B1, 0.1% ethanol, 24 hr, 4,000×; 12B2, a portion of the cell shown in 12B1, 20,000×; 12C1, 5 mM tempo, 24 hr, 4,000×; 12C2, a portion of the cell shown in 12C1, […]; 12D, 5 mM tempo, 24 hr, a portion of another cell, 20,000×. M, mitrochondria; G, golgi apparatus; RER, rough endoplasmic reticulum; Cy, cytoplasm; N, nucleus; Arrow in panel C2 indicates swelling in the nuclear membrane.
LNCaP cells were treated with tempo as described in legend to FIG. 2. Following treatment, monolayer cells were washed three times with PBS, and fixed in 2.5% glutaraldehyde/3% paraformaldehyde in PBS. After fixation, the cell monolayer was washed in PBS. The cells were collected by gentle scraping using a rubber policeman, and centrifuged. The pellet was embedded in 1% agarose to facilitate handling. Post-fixation was performed in 1% osmium tetroxide in distilled water for 1 hr, followed by washing three times in distilled water, enbloc staining with 2% uranyl acetate for 30 min in dark, and washing three times in distilled water. […]

Data set [2] can be described thus: Apoptosis assay (annexin V-FITC/propidium iodide flow cytometry). To be noted: human. The method, then: FIGS. (7A1–7A3), (7B1–7B2), (7C1–7C3), (7D1–7D2), (7E1–7E3), (7F1–7F2). […] Cells were grown in serum-free medium overnight in T-25 flasks and treated with tempol (10 mM) or tempo (10 mM) for various times, trypsinized, and then resuspended in 200 ul 1× binding buffer as described in experimental procedures. The cell suspension was double-stained with annexin V-FITC and propidium iodide and analyzed by flow cytometry. Background signal was determined by comparison with double-stained, single-stained, or unstained control cells. (7A1–7A3), (7C1–7C3), and (7E1–7E3) are cytograms showing a relative distribution of viable (V), apoptotic (A), and necrotic (N) cells at 2 h following tempol or tempo treatment of MDA-MB 231 cells (A), PCI-04A cells (C), and PC-3 cells (E). (7B1–7B3), (7D1–7D2), and (7F1–7F2) are time course analyses of MDA-MB 231 cells (B), PCT-04A cells (D), and PC-3 cells (F). 100,000 cells were analyzed at each time point in triplicate (B) or quadruplicate (D and F). Solid bars, 1% ethanol, striped bars, 10 mM tempol, empty bars, 10 mM tempo. […] Data shown are representative from three to four independent experiments. (7B1–7B2), Time course analysis of MDA-MB 231 cells undergoing apoptosis (annexin V-FITC staining) (7B1), or necrosis (propidium iodide staining) (7B2). Values shown are mean±s.d. of triplicate determinations per time point in each treatment category, and representative of three to four independent experiments. […] (7D1–7D2), Time course analysis of PCI-04A cells undergoing apoptosis (annexin V-FITC staining) (7D1), or necrosis (propidium iodide staining) (7D2). Values shown are mean±s.d. of quadruplicate determinations per time point in each treatment category. […] (7F1–7F2), Time course analysis of PC-3 cells undergoing apoptosis (annexin V-FITC staining) (7F1), or necrosis (propidium iodide staining) (7F2). Values shown are mean±s.d. of quadruplicate determinations per time point in each treatment category. Control/C, cells treated with 1% ethanol for 2 h.
Apoptosis Assay—ApoAlert Annexin V apoptosis detection system (Clontech Lab Inc., Palo Alto, Calif.) was used to measure the relative distribution of apoptotic and necrotic cells. Briefly, cells were seeded at a density of 1×10^6 cells per 25 cm^2 tissue culture flask in medium containing 10% FBS overnight, followed by washing twice in serum-free medium. Cells were maintained overnight in serum-free medium and exposed to tempol (10 mM) or tempo (10 mM) for various times. This was followed by rinsing twice with serum-free medium prior to trypsinization, dilution in two volumes of serum-free medium, and centrifugation at 10,000× g. The cell pellet was washed once with PBS and resuspended in 200 ul of 1× binding buffer. The cell suspension was double-labeled with fluorescein isothiocyanate (FITC)-labeled annexin V (10 ul) and propidium iodide (PI) (10 ul) according to the manufacturer's instructions. Unlabeled cells or untreated cells labeled with either FITC-annexin V or PI, or double-labeled served as internal controls for the background signal. The intensity of the dye uptake by cells was detected using FACStar plus Flow Cytometer (Becton Dickerson, Lincoln Park, N.J.), and data were analyzed using Reproman True Facts software (Seattle, Wash.). Viable cells were FITC−/PI−, apoptotic cells were FITC+/PI−, and necrotic cells were FITC+/PI+.
(In general: A flow cytometer gives signals particle by particle.)

`CC1(C)CCCC(C)(C)N1[O]` [tempo, 2,2,6,6-tetramethylpiperidine-N-oxyl]: the “cell morphology at the light microscopic level” value in data set [1] (2.5 mM) is recorded as “distinct change in cell morphology from spindle shaped, highly refractile appearance to a more flattened appearance”. For the same compound, the “cells with pronounced vacuolation throughout the cytoplasm” value in data set [1] (electron microscopy, 5 mM, 24 hr) was “more than 90%”.

Take `CC1(C)CC(O)CC(C)(C)N1[O]` [tempol, 4-hydroxy-tempo, reference compound]: in data set [2], the viability at 2 h, 10 mM came out at 89.8%.
